Experimental data from PubChem BioAssay (NCI).
Several values for one entry are separate records, joined by “and”; a condition that tells them apart may be missing. Equal entries are not always repeated.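 Dose response: 5 concentrations. Exposure: 48 h. Format: 96-well plates. Endpoint: linear interpolation; highest concentration if not reached. GI50 is the concentration that inhibits growth by half. Definition used: TGI = concentration required for complete inhibition of growth.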

Legend:
Test in all cases: NCI-60 cell line screen, 48 h
MDA-MB-435 = test system: MDA-MB-435
UACC-62 melanoma = test system: UACC-62 melanoma
UO-31 renal = test system: UO-31 renal
UACC-257 melanoma = test system: UACC-257 melanoma
A498 renal = test system: A498 renal
M14 melanoma = test system: M14 melanoma
SK-MEL-5 melanoma = test system: SK-MEL-5 melanoma
SK-OV-3 ovarian = test system: SK-OV-3 ovarian
PC-3 prostate = test system: PC-3 prostate
NCI-H460 lung = test system: NCI-H460 lung

Row | SMILES | GI50 (MDA-MB-435) [µM] | TGI (MDA-MB-435) [µM] | GI50 (UACC-62 melanoma) [µM] | TGI (UACC-62 melanoma) [µM] | GI50 (UO-31 renal) | TGI (UO-31 renal) [µM] | GI50 (UACC-257 melanoma) [µM] | TGI (UACC-257 melanoma) [µM] | GI50 (A498 renal) [µM] | TGI (A498 renal) [µM] | GI50 (M14 melanoma) [µM] | TGI (M14 melanoma) [µM] | GI50 (SK-MEL-5 melanoma) [µM] | TGI (SK-MEL-5 melanoma) [µM] | GI50 (SK-OV-3 ovarian) | TGI (SK-OV-3 ovarian) [µM] | GI50 (PC-3 prostate) [µM] | TGI (PC-3 prostate) [µM] | GI50 (NCI-H460 lung) [µM] | TGI (NCI-H460 lung) [µM]
1 | COc1ccc2c(c1)C(=O)/C(=C/c1ncc([N+](=O)[O-])n1C)O2 | 0.161 | 0.323 | 1.29 | 3.12 | 0.494 µM | 2.53 | 1.41 | 6.82 | 1.42 | 2.98 | 0.244 | 0.737 | 0.207 | 0.552 | 2.11 µM | 6.43 | 1.25 | 5.46 | 0.934 | 7.38
2 | O=c1[nH]cnc2[nH]ncc12 | 380 | > 5000 | 166 | > 2560 | > 64.9 µM and 525 µM | > 5000 | 788 | > 5000 | 532 | > 5000 | 234 | > 5000 | 1200 | > 5000 | > 85.9 µM and 111 µM | > 4080 | 253 | > 5000 | 1510 | > 5000
3 | COc1cc(-c2nc3sc4c(c3c(=O)[nH]2)CCCCCC4)cc(OC)c1OC | 0.115 | 0.611 | 0.743 | 30.3 | 2.07 µM | > 33.2 | 3 | > 33.2 | 0.694 | 3.17 | 0.831 | > 33.2 | 0.853 | 2.96 | 0.89 µM | 16.4 | 1.5 | > 33.2 | 1.2 | > 33.2
4 | COc1cc(/C=C2\CN(C)C/C(=C\c3cc(CN4CCCCC4)c(O)c(OC)c3)C2=O)cc(CN2CCCCC2)c1O | 3.6 | 13.2 | 7.2 | 20.3 | 3.78 µM | 17.7 | 7.99 | 22 | 10.1 | 22.7 | 3.02 | 10.8 | 13 | 26.1 | 7.71 µM | 37.2 | 4.36 | 26.2 | 2.18 | 5.13
5 | COC(=O)C1(F)C(=O)NC(=O)NC1O (stereo not given) | – | > 100 | – | > 100 | – | > 100 | – | > 100 | – | > 100 | – | > 100 | – | > 100 | – | > 100 | – | > 100 | – | > 100
6 | Cc1c(C)[n+](=O)c(C)c(C)n1[O-] | > 100 | > 100 | > 100 | > 100 | > 100 µM | > 100 | > 100 | > 100 | > 100 | > 100 | > 100 | > 100 | > 100 | > 100 | > 100 µM | > 100 | > 100 | > 100 | > 100 | > 100
7 | COc1ccc(/C=C/C(=O)Oc2cc(O)cc(O)c2)cc1 | – | > 100 | – | > 100 | – | > 100 | – | > 100 | – | > 100 | – | > 100 | – | > 100 | – | > 100 | – | > 100 | – | > 100
8 | C/C(=N\N=C(/[Se])N1CC2CCC(CC2)C1)c1ccccn1 | – | 0.619 | – | 0.711 | – | 1.9 | – | 0.569 | – | 1.31 | – | 0.701 | – | 0.433 | – | 2.09 | – | 1.26 | – | 2.61
9 | O=C(N/N=C/c1ccc([N+](=O)[O-])cc1)c1ccc2nc(-c3ccc(Cl)cc3)[nH]c2c1 | 3.57 | 12.2 | 3.51 | 14.9 | 6.05 µM | 38.3 | 3.37 | 15.4 | 2.39 | 7.75 | 2.73 | 9.13 | 2.11 | 4.78 | 11.4 µM | 39.6 | 0.42 | 15.3 | 2.1 | 4.49
10 | CC(C)NC(=O)OCc1c(COC(=O)NC(C)C)c(-c2ccc(Cl)cc2)n2c1CCC2 | 5.04 | 19.8 | 2.08 | 7.56 | 2.05 µM | 6.8 | 4.16 | 29.4 | 1.92 | 4.46 | 2.99 | 11.1 | 5.21 | 18.3 | 2.92 µM | 12.5 | 3.32 | 25.2 | 0.751 | 14.4
11 | C=C(c1ccc(C(=O)N(C)c2ccccc2N)cc1)C(C)N1C(=O)[C@H]2CCCN2C(=O)c2ccccc21 (stereo not given in full) | 38.3 | > 100 | 24 | > 100 | 53.4 µM | > 100 | 34.7 | > 100 | 19.2 | 67.5 | 50.1 | > 100 | 31.2 | > 100 | 6.72 µM | 84.2 | 26.2 | > 100 | 32.1 | > 100
12 | O=C(c1ccco1)c1c(C(F)(F)F)n([O-])c2ccccc2[n+]1=O | 1.85 | 17.5 | 0.536 | 2.61 | 0.755 µM | 2.03 | 4.32 | 14.7 | 1.57 | 8.27 | 0.613 | 1.91 | 0.999 | 3.68 | 6.69 µM | 21 | 0.338 | 3.61 | 0.245 | 1.15
13 | NC1=NC(c2ccc(Cl)cc2)C2=C(N1)/C(=C/c1ccc(Cl)cc1)CCC2 (stereo not given) | 2.87 | 12 | 13.3 | 34.8 | 9.76 µM | 27.9 | 7.14 | 28.1 | 2.67 | 12.6 | 2.77 | 11.6 | 5.51 | 12.9 | 23.5 µM | > 100 | 7.82 | 56.3 | 12.2 | 29.8
